Consider 21 molecules from ChEMBL document CHEMBL4699428, “Anticancer potential of some imidazole and fused imidazole derivatives: exploring the mechanism via epidermal growth factor receptor (EGFR) inhibition” (RSC Med Chem, 2020).

In one data set the test system is A549. As to the kind of experiment: Antiproliferative activity against human A549 cells assessed as reduction in cell viability incubated for 48 hrs by MTT assay. The format is functional, cell-based. The following applies: A549, 48 h.
The next data set concerns T47D. As to the kind of experiment: Antiproliferative activity against human T47D cells assessed as reduction in cell viability incubated for 48 hrs by MTT assay. The format is functional, cell-based. (Tetrazolium assays rely on reduction of a dye to a coloured formazan, in cell work by metabolically active cells.)
Data set [1] concerns MDA-MB-231. As to the kind of experiment: Antiproliferative activity against human MDA-MB-231 cells assessed as reduction in cell viability incubated for 48 hrs by MTT assay. The data set is classed as functional, cell-based. The settings on record: MDA-MB-231, 48 h.
The next data set relates to MCF7. As to the kind of experiment: Antiproliferative activity against human MCF-7 cells assessed as reduction in cell viability incubated for 48 hrs by MTT assay. The format is functional, cell-based. The following applies: MCF7, 48 h.
The subject of the next data set is HT-29. As to the kind of experiment: Antiproliferative activity against human HT-29 cells assessed as reduction in cell viability incubated for 48 hrs by MTT assay. The following applies: HT-29, 48 h. The data set is classed as functional, cell-based.
In data set [2] the test system is HBL-100. As to the kind of experiment: Cytotoxicity against human HBL-100 cells assessed as reduction in cell survival at 10 uM incubated for 48 hrs by MTT assay. The format is cell-based. The settings on record: hbl-100, 48 h.
The test system of data set [3] is HBL-100. As to the kind of experiment: Cytotoxicity against human HBL-100 cells assessed as disruption of cell morphology at 10 uM. The settings on record: hbl-100, 10 µM. The format is cell-based.
The target of data set [4] is Epidermal growth factor receptor (Homo sapiens, UniProt P00533). As to the kind of experiment: Inhibition of EGFR (unknown origin) using Tyrosine 4 peptide and ATP as substrate incubated for 1 hr by Z'-lyte kinase assay based […] method.
Epidermal growth factor receptor, sequence (P00533 whole entry): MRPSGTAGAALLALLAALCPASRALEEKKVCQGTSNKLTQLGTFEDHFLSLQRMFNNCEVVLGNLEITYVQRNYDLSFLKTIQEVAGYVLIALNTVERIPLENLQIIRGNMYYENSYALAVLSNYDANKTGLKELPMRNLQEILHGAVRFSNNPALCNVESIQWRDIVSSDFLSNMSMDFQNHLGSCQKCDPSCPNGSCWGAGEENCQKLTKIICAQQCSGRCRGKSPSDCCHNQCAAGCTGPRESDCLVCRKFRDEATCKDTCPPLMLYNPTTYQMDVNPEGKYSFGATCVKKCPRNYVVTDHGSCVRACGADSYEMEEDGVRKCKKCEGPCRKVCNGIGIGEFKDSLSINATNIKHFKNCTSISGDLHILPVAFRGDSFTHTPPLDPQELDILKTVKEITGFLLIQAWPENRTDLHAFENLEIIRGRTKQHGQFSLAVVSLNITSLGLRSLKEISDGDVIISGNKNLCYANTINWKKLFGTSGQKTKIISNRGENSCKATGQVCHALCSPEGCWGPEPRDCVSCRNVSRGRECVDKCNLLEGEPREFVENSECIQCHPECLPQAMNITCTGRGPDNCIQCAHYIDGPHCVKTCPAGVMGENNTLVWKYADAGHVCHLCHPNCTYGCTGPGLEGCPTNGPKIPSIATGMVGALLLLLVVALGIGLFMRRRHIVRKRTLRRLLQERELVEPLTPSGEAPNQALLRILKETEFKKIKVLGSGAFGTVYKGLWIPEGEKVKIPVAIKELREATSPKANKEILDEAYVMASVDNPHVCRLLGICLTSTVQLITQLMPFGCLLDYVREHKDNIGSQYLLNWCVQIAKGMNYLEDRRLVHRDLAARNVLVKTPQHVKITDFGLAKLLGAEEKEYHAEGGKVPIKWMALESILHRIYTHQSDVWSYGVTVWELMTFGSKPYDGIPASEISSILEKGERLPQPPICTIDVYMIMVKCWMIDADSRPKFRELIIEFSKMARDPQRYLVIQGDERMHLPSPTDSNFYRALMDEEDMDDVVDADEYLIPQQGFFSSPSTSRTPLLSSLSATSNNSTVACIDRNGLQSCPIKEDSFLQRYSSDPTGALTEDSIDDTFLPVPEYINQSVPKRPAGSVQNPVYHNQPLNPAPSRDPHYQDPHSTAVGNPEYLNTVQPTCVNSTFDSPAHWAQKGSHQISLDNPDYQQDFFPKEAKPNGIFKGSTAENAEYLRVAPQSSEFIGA
Data set [5] is described as follows: Cytotoxicity against human peripheral blood mononuclear cells assessed as reduction in cell survival at 10 uM incubated for 48 hrs by MTT assay. The data set is classed as cell-based. The settings on record: pbmc.
Data set [6] concerns MDA-MB-231. As to the kind of experiment: Induction of mitochondrial membrane potential depolarization in human MDA-MB-231 cells assessed as […] fluorescence to green fluorescence ratio at sub-IC50 concentration incubated for 48 hrs by JC1 staining based flow cytometry. The data set is classed as functional, cell-based. On the technique in general: In flow cytometry, cells or beads pass a laser one at a time.

Data set [7] deals with MDA-MB-231. As to the kind of experiment: Induction of reactive oxygen species generation in human MDA-MB-231 cells assessed as increase in intracellular ROS level at sub-IC50 concentration incubated for 48 hrs by H2DCFDA staining based flow cytometry. The format is functional, cell-based.

The source made the active and inactive calls. No cut-off for these calls is given here.

The IC50 is the concentration needed to halve the response being measured. With `COc1ccc(/C=N/c2c(C#N)ncn2Cc2ccc(F)cc2)c(OC)c1OC`, the IC50 is 24.3 µM with A549; more than 25 µM in the data set with T47D; more than 25 µM with MDA-MB-231 [1]; 12.6 µM in the data set on MCF7; more than 25 µM with HT-29.
On to `COc1ccc(C2N=C(C(N)=O)c3ncn(-c4ccc(F)cc4)c3N2)cc1OC` (centres undefined), for which the Activity entry (in the data set on HBL-100 [2]; in the data set with HBL-100 [3]; in data set [5]) was “Non-Toxic” in each case. In addition, the IC50 with A549 came to 2.29 µM; with T47D it was 9.96 µM; in the data set on MDA-MB-231 [1] it was 6.76 µM; in the data set on MCF7, 5.71 µM; in the data set on HT-29, 3.29 µM; in data set [4], 0.617 µM.
As for `COc1ccc(/C=N/c2c(C#N)ncn2Cc2ccc(F)cc2)cc1O`, the IC50 with A549 came to 1.32 µM; in the data set with T47D, 6.14 µM; with MDA-MB-231 [1], 2.67 µM; in the data set on MCF7, 4.53 µM; in the data set with HT-29 it was 6.14 µM. Moreover, the Activity result was “Toxic” in the data set with HBL-100 [3] and “Non-Toxic” in data set [5].
Consider `COc1ccc(/C=N/c2c(C#N)ncn2-c2ccc(F)cc2)cc1O`, for which the IC50 in the data set on A549 is more than 25 µM; with T47D it was 19.9 µM; in the data set with MDA-MB-231 [1] it was 21.4 µM; with MCF7, 7.85 µM; in the data set on HT-29, 19.9 µM.
Turning to `COc1cc(/C=N/c2c(C#N)ncn2Cc2ccc(F)cc2)ccc1O`, the IC50 was found to be 10.9 µM with A549; 21.5 µM with T47D; 16.1 µM in the data set with MDA-MB-231 [1]; 11.3 µM in the data set on MCF7; 21.5 µM in the data set on HT-29.
With `COc1ccc(/C=N/c2c(C#N)ncn2Cc2ccc(F)cc2)cc1`, the IC50 in the data set with A549 is 4.62 µM; with T47D, 9.19 µM; in the data set with MDA-MB-231 [1], 2.87 µM; with MCF7, 3.87 µM; in the data set with HT-29 it was 9.19 µM. Further, the Activity result was “Toxic” in the data set on HBL-100 [3] and “Non-Toxic” in data set [5].
In the case of `COc1ccc(/C=N/c2c(C#N)ncn2-c2ccc(F)cc2)cc1OC`, the IC50 in the data set with A549 was 2.96 µM; in the data set on T47D it was 7.23 µM; in the data set with MDA-MB-231 [1], 4.27 µM; with MCF7 it was 14.7 µM; with HT-29, 7.23 µM. The Activity result in [5] is listed as “Toxic”.
`CC(C)c1ccc(/C=N/c2c(C#N)ncn2-c2ccc(F)cc2)cc1`: the IC50 is 14.7 µM in the data set on A549; more than 25 µM in the data set on T47D; 20.4 µM in the data set on MDA-MB-231 [1]; 9.87 µM in the data set with MCF7; more than 25 µM with HT-29.
Take `N#Cc1ncn(-c2ccc(F)cc2)c1/N=C/c1cc([N+](=O)[O-])ccc1O`: the concentration for half-maximal inhibition (IC50) in the data set with A549 was 17.2 µM; in the data set on T47D it was 15.3 µM; with MDA-MB-231 [1], 17.2 µM; in the data set on MCF7, 9.99 µM; with HT-29, 15.3 µM.
As to `N#Cc1ncn(-c2ccc(F)cc2)c1/N=C/c1ccc([N+](=O)[O-])cc1`, the IC50 with A549 came out at 18.1 µM; with T47D, 15.9 µM; in the data set on MDA-MB-231 [1], 13.4 µM; in the data set with MCF7 it was 9.1 µM; in the data set with HT-29, 15.9 µM.
As to `COc1ccc(C2N=C(C(N)=O)c3ncn(-c4ccc(N5CCN(C)CC5)c([N+](=O)[O-])c4)c3N2)cc1OC` (centres undefined), the outcome in the data set with MDA-MB-231 [6] and in the data set on MDA-MB-231 [7] was Active.
Consider `COc1cc(/C=N/c2c(C#N)ncn2Cc2ccc(F)cc2)cc(OC)c1OC`, for which the IC50 is 9.71 µM with A549; 17.5 µM in the data set on T47D; 2.87 µM with MDA-MB-231 [1]; 9.04 µM in the data set on MCF7; 16.5 µM in the data set on HT-29. In [5], the Activity entry was “Toxic”.
As for `COc1cc(/C=N/c2c(C#N)ncn2-c2ccc(F)cc2)ccc1O`, the IC50 in the data set with A549 worked out at 13.6 µM; with T47D it was 20.1 µM; in the data set with MDA-MB-231 [1] it was 13.6 µM; with MCF7, 9.99 µM; in the data set on HT-29 it was 20.1 µM.
`N#Cc1ncn(-c2ccc(F)cc2)c1/N=C/c1ccc(O)cc1`: the IC50 in the data set on A549 amounted to 16.3 µM; in the data set with T47D, 20.4 µM; in the data set on MDA-MB-231 [1] it was 16.3 µM; with MCF7, 11.5 µM; in the data set on HT-29, 20.4 µM.
With `COc1cc(/C=N/c2c(C#N)ncn2-c2ccc(F)cc2)cc(OC)c1OC`, the IC50 was found to be 9.88 µM in the data set on A549; 13.7 µM with T47D; 18.7 µM with MDA-MB-231 [1]; 8.32 µM in the data set on MCF7; 13.7 µM in the data set on HT-29.
Consider `COc1ccc(OC)c(/C=N/c2c(C#N)ncn2-c2ccc(F)cc2)c1`, for which the IC50 in the data set with A549 worked out at 9.28 µM; with T47D it was 16.3 µM; in the data set on MDA-MB-231 [1], 12.3 µM; with MCF7 it was 7.09 µM; with HT-29, 16.3 µM.
For the molecule `COc1ccc(OC)c(/C=N/c2c(C#N)ncn2Cc2ccc(F)cc2)c1`, the IC50 in the data set with A549 was 13.1 µM; in the data set with T47D, 22.4 µM; with MDA-MB-231 [1], 17.6 µM; in the data set with MCF7, 10.9 µM; with HT-29, 22.4 µM.
Consider `COc1cc(C2N=C(C(N)=O)c3ncn(-c4ccc(F)cc4)c3N2)cc(OC)c1OC` (centres undefined), for which the IC50 was found to be 2.29 µM in the data set with A549; 10.7 µM with T47D; 8.67 µM with MDA-MB-231 [1]; 7.46 µM in the data set with MCF7; 2.37 µM in the data set on HT-29. For the same molecule, the Activity entry in data set [5] was “Toxic”.
Turning to `COc1ccc(/C=N/c2c(C#N)ncn2Cc2ccc(F)cc2)cc1OC`, the 50% inhibitory concentration (IC50) in the data set with A549 is 9.13 µM; in the data set on T47D, 8.2 µM; with MDA-MB-231 [1] it was 10.5 µM; in the data set on MCF7 it was 11.1 µM; in the data set with HT-29, 13.8 µM.
As for `N#Cc1ncn(Cc2ccc(F)cc2)c1/N=C/c1ccc([N+](=O)[O-])cc1`, the concentration for half-maximal inhibition (IC50) in the data set with A549 is 2.02 µM; in the data set on T47D, 5.72 µM; in the data set with MDA-MB-231 [1], 3.44 µM; in the data set on MCF7, 10.6 µM; in the data set on HT-29, 5.72 µM. Moreover, the Activity result in data set [5] is reported as “Toxic”.
Consider `COc1ccc(/C=N/c2c(C#N)ncn2-c2ccc(F)cc2)cc1`, for which the IC50 in the data set on A549 turned out to be 17.1 µM; in the data set with T47D, 19.4 µM; in the data set on MDA-MB-231 [1] it was 17.1 µM; with MCF7, 9.33 µM; with HT-29, 19.4 µM.
